The record followed here is patent US20250248970A1, “NOVEL SUBSTITUTED FLUORINATED N-PROPYL-PYRROLIDINE COMPOUNDS, PROCESSES FOR THEIR PREPARATION AND THERAPEUTIC USES THEREOF” (SANOFI, priority 2022, published 2025).

The assay has as its target T1, ERα (Homo sapiens, UniProt P03372).
T1 construct: host or cells: MCF7
T1 sequence (P03372 1-595): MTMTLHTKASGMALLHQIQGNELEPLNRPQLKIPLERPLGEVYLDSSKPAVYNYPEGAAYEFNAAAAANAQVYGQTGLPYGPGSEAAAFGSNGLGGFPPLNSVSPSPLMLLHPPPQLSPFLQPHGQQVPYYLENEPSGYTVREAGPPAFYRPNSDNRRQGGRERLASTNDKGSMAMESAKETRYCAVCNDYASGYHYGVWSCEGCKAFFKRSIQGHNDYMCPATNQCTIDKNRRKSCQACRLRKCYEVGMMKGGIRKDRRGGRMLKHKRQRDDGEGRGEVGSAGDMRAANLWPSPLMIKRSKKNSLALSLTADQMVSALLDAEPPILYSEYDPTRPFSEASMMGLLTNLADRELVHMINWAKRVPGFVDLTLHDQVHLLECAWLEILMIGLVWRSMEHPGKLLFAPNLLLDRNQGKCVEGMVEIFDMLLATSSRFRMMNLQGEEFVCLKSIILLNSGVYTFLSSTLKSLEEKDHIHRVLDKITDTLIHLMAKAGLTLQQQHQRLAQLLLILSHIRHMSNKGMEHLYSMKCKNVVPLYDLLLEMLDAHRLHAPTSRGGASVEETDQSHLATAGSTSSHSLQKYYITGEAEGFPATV
The experiment in a line: Estrogen receptor degradation activity (breast cancer cell ERα in cell western assay). It is filed as cell-based. The note with it: MCF7 cells, 0.3 μM, 4 hours, % of ERα levels decrease relative to fulvestrant. Here is the method: Said test involves measuring the in vitro degradation activity of the compounds of the Table 1a.
The measurements of the degradation activities were made using a breast cancer cell ERα in cell western assay as described hereunder.
MCF7 cells (ATCC) were seeded in 384 wells microplate (collagen coated) at a concentration of 10000 cells/30 μL per well in red phenol free MEM alpha medium (invitrogen) containing 5% charcoal dextran striped FBS. The following day, 9 points serial 1:5 dilution of each compound was added to the cells in 2.5p L at final concentrations ranging from 0.3-0.0000018 μM (in table 2), or 0.1 μM for fulvestrant (using as positive control). At 4 hours post compound addition the cells were fixed by adding 25 μL of formalin (final concentration 5% formalin containing 0.1% triton) for 10 minutes at room temperature and then washed twice with PBS. Then, 50 μL of LI-COR blocking buffer containing 0.1% Triton was added to plate for 30 minutes at room temperature. LI-COR blocking buffer was removed and cells were incubated overnight at cold room with 50 μL anti-ER rabbit monoclonal antibody (Thermo scientific MA1-39540) diluted at 1:1000 in LI-COR blocking buffer containing 0.1% tween-20. Wells which were treated with blocking buffer but no antibody were used as background control. Wells were washed twice with PBS (0.1% tween-20) and incubated at 37° C. for 60 minutes in LI-COR (0.1% tween-20) containing goat anti-rabbit antibody Alexa 488 (1:1000) and Syto-64 a DNA dye (2 μM final concentration). Cells were then washed 3 times in PBS and scanned in ACUMEN explorer (TTP-Labtech). Integrated intensities in the green fluorescence and red fluorescence were measured to determine the levels of ERα and DNA respectively.
The degradation activity with respect to estrogen receptors in this test is given by the concentration which degrades 50% of the estrogen receptor (or IC50) in nM.
The % of ERα levels decrease were determined as follows: % inhibition=100*(1−(sample−fulvestrant: DMSO−fulvestrant)).
For `O=C(O)c1ccc2c(c1)CCCC(c1ccc(Cl)cc1Cl)=C2c1ccc(CC2CCN(CCC(F)F)C2)cc1` (single isomer, unassigned; isomer 1) [Compound 9, 8-(2,4-dichlorophenyl)-9-(4-((1-(3,3-difluoropropyl)pyrrolidin-3-yl)methyl)phenyl)-6,7-dihydro-5H-benzo[7]annulene-3-carboxylic acid, Isomer 1], the “% Degradation At 0.3 μM” value is recorded as 80%.
`Cl.O=C(O)c1ccc2c(c1)SCC(c1ccc(Cl)cc1Cl)=C2c1ccc(CC2CCN(CCCF)C2)cc1` (single isomer, unassigned; isomer 1) [Compound 25, 3-(2,4-dichlorophenyl)-4-(4-((1-(3-fluoropropyl)pyrrolidin-3-yl)methyl)phenyl)-2H-thiochromene-7-carboxylic acid hydrochloride, Isomer 1]: the “% Degradation At 0.3 μM” value was 68%.
Then `Cl.O=C(O)c1ccc2c(c1)CCC(c1ccc(Cl)cc1Cl)=C2c1ccc(CC2CCN(CCCF)C2)cc1` (single isomer, unassigned; isomer 1) [Compound 36, 6-(2,4-dichlorophenyl)-5-(4-((1-(3-fluoropropyl)pyrrolidin-3-yl)methyl)phenyl)-7,8-dihydronaphthalene-2-carboxylic acid hydrochloride, Isomer 1], with 92%; and `Cl.Oc1ccc2c(c1)CCCC(c1ccc(Cl)cc1Cl)=C2c1ccc(CC2CCN(CCC(F)F)C2)cc1` (single isomer, unassigned; isomer 1) [Compound 31, 8-(2,4-dichlorophenyl)-9-(4-((1-(3,3-difluoropropyl)pyrrolidin-3-yl)methyl)phenyl)-6,7-dihydro-5H-benzo[7]annulen-3-ol hydrochloride, Isomer 1], with 73%.
Then `Cc1cc(F)ccc1C1=C(c2ccc(CC3CCN(CCCF)C3)cc2)c2ccc(C(=O)O)cc2CCC1` (single isomer, unassigned; isomer 1) [Compound 17, 8-(4-fluoro-2-methylphenyl)-9-(4-((1-(3-fluoropropyl)pyrrolidin-3-yl)methyl)phenyl)-6,7-dihydro-5H-benzo[7]annulene-3-carboxylic acid, Isomer 1], with 84%; and `Oc1ccc2c(c1)SCCC(c1ccccc1Cl)=C2c1ccc(CC2CCN(CCCF)C2)cc1` (single isomer, unassigned; isomer 1) [Compound 44, 4-(2-chlorophenyl)-5-(4-((1-(3-fluoropropyl)pyrrolidin-3-yl)methyl)phenyl)-2,3-dihydrobenzo[b]thiepin-8-ol, Isomer 1], with 70%; and `Cc1c(F)cccc1C1=C(c2ccc(CC3CCN(CCCF)C3)cc2)c2ccc(C(=O)O)cc2CCC1.Cl` (single isomer, unassigned; isomer 1) [Compound 20, 8-(3-fluoro-2-methylphenyl)-9-(4-((1-(3-fluoropropyl)pyrrolidin-3-yl)methyl)phenyl)-6,7-dihydro-5H-benzo[7]annulene-3-carboxylic acid hydrochloride, Isomer 1], with 90%.
Then `O=C(O)c1ccc2c(c1)CCCC(c1ccc(Cl)cc1Cl)=C2c1ccc(C(F)(F)C2CCN(CCCF)C2)cc1` (single isomer, unassigned; isomer 1) [Compound 26, 8-(2,4-dichlorophenyl)-9-(4-(difluoro(1-(3-fluoropropyl)pyrrolidin-3-yl)methyl)phenyl)-6,7-dihydro-5H-benzo[7]annulene-3-carboxylic acid, Isomer 1], with 84%; and `Cc1c(Cl)cccc1C1=C(c2ccc(CC3CCN(CCCF)C3)cc2)c2ccc(C(=O)O)cc2CCC1` (single isomer, unassigned; isomer 1) [Compound 15, 8-(3-chloro-2-methylphenyl)-9-(4-((1-(3-fluoropropyl)pyrrolidin-3-yl)methyl)phenyl)-6,7-dihydro-5H-benzo[7]annulene-3-carboxylic acid, Isomer 1], with 88%; and `CC1CCc2cc(C(=O)O)ccc2C(c2ccc(CC3CCN(CCCF)C3)cc2)=C1c1ccc(C(F)(F)F)cc1` (single isomer, unassigned; isomer 2) [Compound 42, 9-(4-((1-(3-fluoropropyl)pyrrolidin-3-yl)methyl)phenyl)-7-methyl-8-(4-(trifluoromethyl)phenyl)-6,7-dihydro-5H-benzo[7]annulene-3-carboxylic acid, Isomer 2], with 90%.
As for `Cc1c(C2=C(c3ccc(CC4CCN(CCC(F)F)C4)cc3)c3ccc(C(=O)O)cc3CCC2)cccc1C(F)(F)F.Cl` (single isomer, unassigned; isomer 1) [Compound 28, 9-(4-((1-(3,3-difluoropropyl)pyrrolidin-3-yl)methyl)phenyl)-8-(2-methyl-3-(trifluoromethyl)phenyl)-6,7-dihydro-5H-benzo[7]annulene-3-carboxylic acid hydrochloride, Isomer 1], the “% Degradation At 0.3 μM” value turned out to be 78%.
For the molecule `O=C(O)c1ccc2c(c1)CCCC(c1ccccc1C(F)(F)F)=C2c1ccc(CC2CCN(CCC(F)F)C2)cc1` (stereo not shown) [Compound 33, 9-(4-((1-(3,3-difluoropropyl)pyrrolidin-3-yl)methyl)phenyl)-8-(2-(trifluoromethyl)phenyl)-6,7-dihydro-5H-benzo[7]annulene-3-carboxylic acid], the “% Degradation At 0.3 μM” value is given as 76%.
Then `Oc1ccc2c(c1)SCCC(c1ccc(Cl)cc1Cl)=C2c1ccc(CC2CCN(CCCF)C2)cc1` (single isomer, unassigned; isomer 1) [Compound 43, 4-(2,4-dichlorophenyl)-5-(4-((1-(3-fluoropropyl)pyrrolidin-3-yl)methyl)phenyl)-2,3-dihydrobenzo[b]thiepin-8-ol, Isomer 1], with 80%; and `Cc1cc(F)cc(C)c1C1=C(c2ccc(CC3CCN(CCCF)C3)cc2)c2ccc(C(=O)O)cc2CCC1.Cl` (single isomer, unassigned; isomer 1) [Compound 35, 8-(4-fluoro-2,6-dimethylphenyl)-9-(4-((1-(3-fluoropropyl)pyrrolidin-3-yl)methyl)phenyl)-6,7-dihydro-5H-benzo[7]annulene-3-carboxylic acid hydrochloride, Isomer 1], with 84%; and `Cl.O=C(O)c1ccc2c(c1)CCCC(c1ccc(F)cc1F)=C2c1ccc(CC2CCN(CCCF)C2)cc1` (single isomer, unassigned; isomer 1) [Compound 19, 8-(2,4-difluorophenyl)-9-(4-((1-(3-fluoropropyl)pyrrolidin-3-yl)methyl)phenyl)-6,7-dihydro-5H-benzo[7]annulene-3-carboxylic acid hydrochloride, Isomer 1], with 86%.
With `Cl.O=C(O)c1ccc2c(c1)OCCC(c1ccc(Cl)cc1Cl)=C2c1ccc(CC2CCN(CCCF)C2)cc1` (single isomer, unassigned; isomer 1) [Compound 7, 4-(2,4-dichlorophenyl)-5-(4-((1-(3-fluoropropyl)pyrrolidin-3-yl)methyl)phenyl)-2,3-dihydrobenzo[b]oxepine-8-carboxylic acid hydrochloride, Isomer 1] the figure was 80%.
